Measurements: paper PMC7390679 (Bioorganic chemistry, 2020)
Where a name gives a salt, the structure may show the parent alone. Read-outs that look alike come from different tables or passages of the source.

Assays:
EV-A71 Tainan/4643/98 = test: CPE antiviral assay, EV-A71 Tainan/4643/98 in RD cells; format: cell-based; conditions: read-out: EC50 against EV-A71 Tainan
CVB3 = test: CPE antiviral assay, CVB3 in Vero C1008 cells; format: cell-based
Vero C1008 cells = test: Cytotoxicity in Vero C1008 cells, neutral red method; format: cell-based; conditions: read-out: CC50 in Vero C1008 cells
CVB3 2C protein = CVB3 2C protein (Coxsackievirus B3, UniProt P03313); test: Differential scanning fluorimetry; format: binding; conditions: 1 mM compound, 4.5 μM 2C, DSF
Sequence of CVB3 2C protein (P03313 1101-1429): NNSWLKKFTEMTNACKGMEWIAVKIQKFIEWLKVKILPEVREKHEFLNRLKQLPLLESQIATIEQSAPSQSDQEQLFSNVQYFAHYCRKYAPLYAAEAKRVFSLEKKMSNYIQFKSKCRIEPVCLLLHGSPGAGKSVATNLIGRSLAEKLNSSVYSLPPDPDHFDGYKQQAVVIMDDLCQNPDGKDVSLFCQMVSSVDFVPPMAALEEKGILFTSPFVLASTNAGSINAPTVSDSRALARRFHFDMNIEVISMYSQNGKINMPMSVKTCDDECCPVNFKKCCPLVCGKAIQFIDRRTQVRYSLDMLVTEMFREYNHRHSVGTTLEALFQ

RD cells = test: Cytotoxicity in RD cells, neutral red method; conditions: read-out: CC50 in RD cells, mean ± SD of three repeats
[1] = Enterovirus B, CVB3, Vero C1008, read-out: EC50 against CVB3
[2] = read-out: EC50 against CVB3, Vero C1008 cells, CPE assay

Row | SMILES | EC50 (EV-A71 Tainan/4643/98; Enterovirus A, EVA71, RD) | EC50 (CVB3; [1]) | CC50 (Vero C1008 cells) | EC50 (EV-A71 Tainan/4643/98; RD cells, CPE assay) | Tm shift of CVB3 2C protein (CVB3 2C protein) | CC50 (RD cells) | EC50 (CVB3; [2])
1 | CCCCOc1cc(C(=O)NCCN(CC)CC)c2ccccc2n1 [dibucaine] | > 10 µM | 1.3 µM |  |  |  |  | 
2 | CNCCC(Oc1ccc(C(F)(F)F)cc1)c1ccccc1 (stereo not drawn) [fluoxetine] |  |  | 11 µM |  |  |  | 
3 | COc1ccc(CC(C)NCC(O)c2ccc(O)c(NC=O)c2)cc1 (stereo not drawn) [formoterol] | > 100 µM | 9.9 µM | > 300 µM |  |  |  | 
4 | N=C(N)N [guanidine] |  |  | > 3000 µM | 902 µM | 1.77 °C | > 1000 µM | 224 µM
5 | Cc1ccc2c(c1)c1c3n2CCNC3CCC1 (stereo not drawn) [pirlindole mesylate] |  |  | 40.5 µM | > 20 µM |  | 19 µM | 3.6 µM
